# From patent US20230114728A1 (Venatorx Pharmaceuticals, Inc., priority 2019, published 2023)
# How the values were obtained:
# E. coli K12 PBP3 = molecular target: T1, E. coli K12 PBP3 (Escherichia coli, UniProt P0AD68); test: biochemical; format: binding
# T1 construct: made in house
# Summary of the method: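 A. baumannii PBP2 (2.5 μM) and PBP3 (0.2 μM) were run in 25 mM Tris pH 8.0 buffer with Tween 20; E. coli PBP3 (1.5 μM) and N. gonorrhoeae PBP2 ([…]) in 50 mM Hepes pH 8.0 buffer.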
# P. aeruginosa PBP3 = molecular target: T2, P. aeruginosa PBP3 (Pseudomonas aeruginosa, UniProt G3XD46); test: Bocillin-FL fluorescence polarization competition binding assay, P. aeruginosa PBP3; conditions: fluorescence polarization competition binding assay using Bocillin-FL
# T2 construct: made in house
# Summary of the method: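 Inhibitor competition with Bocillin-FL for P. aeruginosa PBP3 was followed by fluorescence polarization on a Cytation3 (BioTek) reader, using g-factor 0.96, 490 nm excitation and 520 nm emission. The enzyme was at 0.75 μM and the probe at 0.1 μM in Hepes/NaCl/glycerol buffer, 80 μl per well. FP was recorded immediately after probe addition for up to 60 minutes. Potency was expressed as EC50, the concentration that reduces bound probe by 50%.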
# [1] = tested on: N. gonorrhoeae ATCC 49226; test: Liquid broth MIC in Fastidious broth; format: cell-based; conditions: Neisseria gonorrhoeae, ATCC49226; N. gonorrhoeae strain ATCC 49226; Fastidious broth; read-out: Minimum Inhibitory Concentration, N. gonorrhoeae ATCC 49226
# Summary of the method: (§1)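 Colonies were swabbed from chocolate agar after 24 h growth and standardised by optical density at 600 nm. Compounds were serially diluted twofold in Fastidious broth, and bacteria added to give 5×10^5 CFU/mL. After about 24 h at 36 °C in 5% CO2, the lowest concentration allowing under 10% growth was taken as MIC.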
# N. gonorrhoeae FA1090 = test: Liquid broth MIC in Fastidious broth; format: cell-based; conditions: Neisseria gonorrhoeae; N. gonorrhoeae strain FA1090; Fastidious broth; read-out: Minimum Inhibitory Concentration, N. gonorrhoeae FA1090
# Summary of the method: as §1
# N. gonorrhoeae H041 = test: Liquid broth MIC in Fastidious broth; format: cell-based; conditions: Neisseria gonorrhoeae, H041, read-out: Minimum Inhibitory Concentration, N. gonorrhoeae H041
# Summary of the method: (§2)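 Broth microdilution against gonococcal strains expressing mosaic PBP2, starting inoculum 5×10^5 CFU/mL in Fastidious broth. Incubation runs ~24 h at 36 °C under 5% CO2, with MIC scored visually at <10% of full growth.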
# N. gonorrhoeae WHO G = test: Liquid broth MIC in Fastidious broth; format: cell-based; conditions: Neisseria gonorrhoeae; N. gonorrhoeae strain WHO G; Fastidious broth; read-out: Minimum Inhibitory Concentration, N. gonorrhoeae WHO G
# Summary of the method: as §1
# N. gonorrhoeae WHO K = test: Liquid broth MIC in Fastidious broth; format: cell-based; conditions: Neisseria gonorrhoeae, read-out: Minimum Inhibitory Concentration, N. gonorrhoeae WHO K
# Summary of the method: as §2
# N. gonorrhoeae WHO L = test: Liquid broth MIC in Fastidious broth; format: cell-based; conditions: Neisseria gonorrhoeae; N. gonorrhoeae strain WHO L; Fastidious broth; read-out: Minimum Inhibitory Concentration, N. gonorrhoeae WHO L
# Summary of the method: as §1
# T1 sequence (P0AD68 1-577): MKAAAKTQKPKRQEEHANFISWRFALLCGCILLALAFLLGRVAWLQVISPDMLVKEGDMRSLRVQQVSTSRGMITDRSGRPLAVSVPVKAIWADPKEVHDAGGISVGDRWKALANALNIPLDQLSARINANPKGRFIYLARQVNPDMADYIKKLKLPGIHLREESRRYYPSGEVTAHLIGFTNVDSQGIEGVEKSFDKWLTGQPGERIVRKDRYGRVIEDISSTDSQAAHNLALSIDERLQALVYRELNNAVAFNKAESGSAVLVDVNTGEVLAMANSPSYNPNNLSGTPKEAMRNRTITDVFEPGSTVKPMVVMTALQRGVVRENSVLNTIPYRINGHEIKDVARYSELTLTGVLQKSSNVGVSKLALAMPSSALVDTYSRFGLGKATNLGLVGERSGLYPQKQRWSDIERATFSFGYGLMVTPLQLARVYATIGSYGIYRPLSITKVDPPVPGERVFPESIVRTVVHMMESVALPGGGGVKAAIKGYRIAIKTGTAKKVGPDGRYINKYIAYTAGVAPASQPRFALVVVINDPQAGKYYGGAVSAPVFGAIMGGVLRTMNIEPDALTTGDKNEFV
# T2 sequence (G3XD46 whole entry): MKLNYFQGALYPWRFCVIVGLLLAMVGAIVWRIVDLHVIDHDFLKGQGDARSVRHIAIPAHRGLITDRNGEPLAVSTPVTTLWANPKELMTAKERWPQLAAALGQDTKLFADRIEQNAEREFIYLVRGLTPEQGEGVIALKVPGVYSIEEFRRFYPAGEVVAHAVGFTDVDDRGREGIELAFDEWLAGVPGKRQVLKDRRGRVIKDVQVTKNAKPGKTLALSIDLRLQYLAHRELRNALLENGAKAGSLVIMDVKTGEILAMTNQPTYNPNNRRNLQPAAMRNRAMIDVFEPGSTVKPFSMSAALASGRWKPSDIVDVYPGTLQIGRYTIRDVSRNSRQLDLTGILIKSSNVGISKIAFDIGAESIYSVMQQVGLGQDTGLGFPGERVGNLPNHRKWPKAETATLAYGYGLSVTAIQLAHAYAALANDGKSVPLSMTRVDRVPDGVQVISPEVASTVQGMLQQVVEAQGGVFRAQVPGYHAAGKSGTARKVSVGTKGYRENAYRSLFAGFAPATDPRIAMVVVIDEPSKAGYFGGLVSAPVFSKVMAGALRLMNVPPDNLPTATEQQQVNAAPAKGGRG
SMILES,EC50 (E. coli K12 PBP3),P. aeruginosa PBP3 Potency (P. aeruginosa PBP3),MIC [1],MIC (N. gonorrhoeae FA1090),MIC (N. gonorrhoeae H041),MIC (N. gonorrhoeae WHO G),MIC (N. gonorrhoeae WHO K),MIC (N. gonorrhoeae WHO L)
"CCN1CCN(C(=O)NC(C(=O)N[C@H]2Cc3ccc(F)c(C(=O)O)c3OB2O)c2cc(F)c(O)c(O)c2Cl)C(=O)C1=O (stereo partly drawn) [Example 42, (3R)-3-(2-(2-chloro-5-fluoro-3,4-dihydroxyphenyl)-2-(4-ethyl-2,3-dioxopiperazine-1-carboxamido)acetamido)-7-fluoro-2-hydroxy-3,4-dihydro-2H-benzo[e][1,2]oxaborinine-8-carboxylic acid]",< 30 µM,D (D represents a potency <10 μM),16 to 32 µg/mL,4 to 8 µg/mL,16 to 32 µg/mL,16 to 32 µg/mL,16 to 32 µg/mL,> 64 µg/mL
"NS(=O)(=O)NC(C(=O)N[C@H]1Cc2ccc(F)c(C(=O)O)c2OB1O)c1ncc(O)cc1F (stereo partly drawn) [Example 43, (3R)-7-fluoro-3-(2-(3-fluoro-5-hydroxypyridin-2-yl)-2-(sulfamoylamino)acetamido)-2-hydroxy-3,4-dihydro-2H-benzo[e][1,2]oxaborinine-8-carboxylic acid]",> 500 µM,C (C represents a potency between 10 and 30 μM),> 64 µg/mL,> 64 µg/mL,> 64 µg/mL,> 64 µg/mL,> 64 µg/mL,> 64 µg/mL
"NS(=O)(=O)NC(C(=O)N[C@H]1Cc2cccc(C(=O)O)c2OB1O)c1ccc(C(=O)O)c(F)c1 (stereo partly drawn) [Example 44, (3R)-3-(2-(4-carboxy-3-fluorophenyl)-2-(sulfamoylamino)acetamido)-2-hydroxy-3,4-dihydro-2H-benzo[e][1,2]oxaborinine-8-carboxylic acid]",> 500 µM,C (C represents a potency between 10 and 30 μM),> 64 µg/mL,> 64 µg/mL,> 64 µg/mL,> 64 µg/mL,> 64 µg/mL,> 64 µg/mL
"CCN1CCN(C(=O)NC(C(=O)N[C@H]2Cc3cccc(C(=O)O)c3OB2O)c2ccc(C(N)=O)c(O)c2)C(=O)C1=O (stereo partly drawn) [Example 45, (3R)-3-(2-(4-carbamoyl-3-hydroxyphenyl)-2-(4-ethyl-2,3-dioxopiperazine-1-carboxamido)acetamido)-2-hydroxy-3,4-dihydro-2H-benzo[e][1,2]oxaborinine-8-carboxylic acid]",< 30 µM,D (D represents a potency <10 μM),1 to 2 µg/mL,< 0.125 µg/mL,16 to 32 µg/mL,0.25 to 0.5 µg/mL,16 to 32 µg/mL,16 to 32 µg/mL
"NC(=O)c1ccc(C(NC(=O)N2CCN(CCF)C(=O)C2=O)C(=O)N[C@H]2Cc3cccc(C(=O)O)c3OB2O)cc1O (stereo partly drawn) [Example 46, (3R)-3-(2-(4-carbamoyl-3-hydroxyphenyl)-2-(4-(2-fluoroethyl)-2,3-dioxopiperazine-1-carboxamido)acetamido)-2-hydroxy-3,4-dihydro-2H-benzo[e][1,2]oxaborinine-8-carboxylic acid]",< 30 µM,D (D represents a potency <10 μM),1 to 2 µg/mL,< 0.125 µg/mL,16 to 32 µg/mL,0.25 to 0.5 µg/mL,16 to 32 µg/mL,16 to 32 µg/mL
"NCCCN1CCN(C(=O)NC(C(=O)N[C@H]2Cc3cccc(C(=O)O)c3OB2O)c2ccc(C(N)=O)c(O)c2)C(=O)C1=O (stereo partly drawn) [Example 47, (3R)-3-(2-(4-(3-aminopropyl)-2,3-dioxopiperazine-1-carboxamido)-2-(4-carbamoyl-3-hydroxyphenyl)acetamido)-2-hydroxy-3,4-dihydro-2H-benzo[e][1,2]oxaborinine-8-carboxylic acid]",30 to 500 µM,D (D represents a potency <10 μM),4 to 8 µg/mL,0.25 to 0.5 µg/mL,> 64 µg/mL,4 to 8 µg/mL,> 64 µg/mL,> 64 µg/mL
"CCN1CCN(C(=O)NC(C(=O)N[C@H]2Cc3cccc(C(=O)O)c3OB2O)c2ccc(C(=O)O)c(OC)c2)C(=O)C1=O (stereo partly drawn) [Example 48, (3R)-3-(2-(4-carboxy-3-methoxyphenyl)-2-(4-ethyl-2,3-dioxopiperazine-1-carboxamido)acetamido)-2-hydroxy-3,4-dihydro-2H-benzo[e][1,2]oxaborinine-8-carboxylic acid]",< 30 µM,D (D represents a potency <10 μM),4 to 8 µg/mL,0.25 to 0.5 µg/mL,16 to 32 µg/mL,1 to 2 µg/mL,4 to 8 µg/mL,16 to 32 µg/mL
"O=C(Nc1ccccc1)NC(C(=O)N[C@H]1Cc2ccc(F)c(C(=O)O)c2OB1O)c1ncc(O)cc1F (stereo partly drawn) [Example 49, (3R)-7-fluoro-3-(2-(3-fluoro-5-hydroxypyridin-2-yl)-2-(3-phenylureido)acetamido)-2-hydroxy-3,4-dihydro-2H-benzo[e][1,2]oxaborinine-8-carboxylic acid]",30 to 500 µM,D (D represents a potency <10 μM),16 to 32 µg/mL,4 to 8 µg/mL,> 64 µg/mL,16 to 32 µg/mL,> 64 µg/mL,16 to 32 µg/mL
"CCN1CCN(C(=O)NC(C(=O)N[C@H]2Cc3cccc(C(=O)O)c3OB2O)c2ccc(N)c(F)c2)C(=O)C1=O (stereo partly drawn) [Example 50, (3R)-3-(2-(4-amino-3-fluorophenyl)-2-(4-ethyl-2,3-dioxopiperazine-1-carboxamido)acetamido)-2-hydroxy-3,4-dihydro-2H-benzo[e][1,2]oxaborinine-8-carboxylic acid]",< 30 µM,D (D represents a potency <10 μM),1 to 2 µg/mL,< 0.125 µg/mL,16 to 32 µg/mL,1 to 2 µg/mL,16 to 32 µg/mL,16 to 32 µg/mL
"N=C(N)NCCN1CCN(C(=O)NC(C(=O)N[C@H]2Cc3ccc(F)c(C(=O)O)c3OB2O)c2ncc(O)cc2F)C(=O)C1=O (stereo partly drawn) [Example 51, (3R)-7-fluoro-3-(2-(3-fluoro-5-hydroxypyridin-2-yl)-2-(4-(2-guanidinoethyl)-2,3-dioxopiperazine-1-carboxamido)acetamido)-2-hydroxy-3,4-dihydro-2H-benzo[e][1,2]oxaborinine-8-carboxylic acid]",30 to 500 µM,D (D represents a potency <10 μM),4 to 8 µg/mL,4 to 8 µg/mL,> 64 µg/mL,4 to 8 µg/mL,> 64 µg/mL,> 64 µg/mL
"N=C(N)NC(C(=O)N[C@H]1Cc2ccc(F)c(C(=O)O)c2OB1O)c1ncc(O)cc1F (stereo partly drawn) [Example 52, (3R)-7-fluoro-3-(2-(3-fluoro-5-hydroxypyridin-2-yl)-2-guanidinoacetamido)-2-hydroxy-3,4-dihydro-2H-benzo[e][1,2]oxaborinine-8-carboxylic acid]",> 500 µM,A (A represents a potency of >500 μM),> 64 µg/mL,> 64 µg/mL,> 64 µg/mL,> 64 µg/mL,> 64 µg/mL,> 64 µg/mL
